target: T1, Glycogen phosphorylase, liver form (Rattus norvegicus, UniProt P09811); experiment: Inhibitory concentration against rat liver glycogen phosphorylase
T1 sequence (P09811 whole entry): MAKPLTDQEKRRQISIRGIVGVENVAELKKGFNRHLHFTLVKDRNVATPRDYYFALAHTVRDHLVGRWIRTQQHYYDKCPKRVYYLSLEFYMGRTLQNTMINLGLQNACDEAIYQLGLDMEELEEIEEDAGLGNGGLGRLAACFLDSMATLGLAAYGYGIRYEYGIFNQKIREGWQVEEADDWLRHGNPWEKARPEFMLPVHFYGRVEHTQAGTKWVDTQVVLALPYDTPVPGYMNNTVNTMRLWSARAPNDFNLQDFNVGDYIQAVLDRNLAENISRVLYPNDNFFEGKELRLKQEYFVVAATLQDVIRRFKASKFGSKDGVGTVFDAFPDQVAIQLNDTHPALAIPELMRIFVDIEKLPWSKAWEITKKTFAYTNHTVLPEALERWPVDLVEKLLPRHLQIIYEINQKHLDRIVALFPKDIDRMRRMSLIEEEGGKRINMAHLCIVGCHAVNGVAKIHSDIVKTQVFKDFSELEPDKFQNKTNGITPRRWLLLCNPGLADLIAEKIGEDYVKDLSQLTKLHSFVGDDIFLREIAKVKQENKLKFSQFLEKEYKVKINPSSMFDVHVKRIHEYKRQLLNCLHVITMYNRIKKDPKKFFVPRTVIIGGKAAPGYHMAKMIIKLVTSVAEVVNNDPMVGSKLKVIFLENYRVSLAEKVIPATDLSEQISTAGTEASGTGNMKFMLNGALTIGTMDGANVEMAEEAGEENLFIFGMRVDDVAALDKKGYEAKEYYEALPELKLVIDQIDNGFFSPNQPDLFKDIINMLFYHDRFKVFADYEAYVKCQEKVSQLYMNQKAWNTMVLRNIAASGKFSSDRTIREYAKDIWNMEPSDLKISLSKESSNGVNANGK

Row | IC50 [µM] | SMILES
1 | 648 | Cn1c(=O)c2c(ncn2C)n(C)c1=O [CAFFEINE]
2 | 101 | C[C@H]1[C@H](C)CC[C@]2(C(=O)O)CC[C@]3(C)C(=CC[C@@H]4[C@@]5(C)C[C@@H](O)[C@H](O)C(C)(C)[C@@H]5CC[C@]43C)[C@H]12 [COROSOLIC ACID]
3 | 99 | CC1(C)CC[C@]2(C(=O)O)CC[C@]3(C)C(=CC[C@@H]4[C@@]5(C)C[C@@H](O)[C@H](O)C(C)(C)[C@@H]5CC[C@]43C)[C@@H]2C1 [MASLINIC ACID]
